Data on 1 compound can be found in ChEMBL document CHEMBL5634089, “Design, synthesis and evaluation of 2-pyrimidinylindole derivatives as anti-obesity agents by regulating lipid metabolism” (Eur J Med Chem, 2023).

Calls of active or inactive are those of the source. The calls are words filed in the database; no cut-off is given here.

The test system of data set [1] is Mus musculus. As to the kind of experiment: Inhibition of lipid synthesis in high-fat and high-cholesterol diet induced C57BL/6J mouse assessed as downregulation of ACLY protein expression at 20 mg/kg, ip administered for 6 weeks by Western blotting analysis. Type of data set: functional, organism-based. (In general: Immunoblotting shows a protein as a band on a membrane.)

Data set [2] is described as follows: Tmax in Sprague-Dawley rat at 20 mg/kg, po administered for 24 hrs by LC-MS/MS analysis. Conditions: in vivo. Type of data set: ADME, organism-based.
The subject of data set [3] is 3T3-L1. Description: Anti-adipogenic activity in mouse 3T3-L1 cells assessed as lipid-lowering activity measured after 9 days by Oil Red O staining based microplate reader analysis. Conditions: 3T3-L1, 216 h. Type of data set: functional, cell-based.
Data set [4] in a line: Apparent volume of distribution during terminal phase in Sprague-Dawley rat at 2 mg/kg, iv administered for 24 hrs by LC-MS/MS analysis. Type of data set: ADME, organism-based. The conditions noted are these: in vivo.
For data set [5], the system named is 3T3-L1. Description: Anti-adipogenic activity against mouse 3T3-L1 cells assessed as decrease in Acc mRNA expression at 0.2 to 0.8 uM incubated for 3 days by RT-PCR analysis. Conditions: dose 0.2-0.8 µM, time 3.0 day. Type of data set: functional, cell-based.
The subject of data set [6] is Mus musculus. As to the kind of experiment: Anti-obesity activity in high-fat and high-cholesterol diet induced C57BL/6J mouse assessed as reduction in LDL-c level at 20 mg/kg, ip administered every day for 6 weeks. Type of data set: functional, organism-based.
The subject of data set [7] is 3T3-L1. As to the kind of experiment: Anti-adipogenic activity against mouse 3T3-L1 cells assessed as decrease in Fasn mRNA expression at 0.2 to 0.8 uM incubated for 3 days by RT-PCR analysis. The class given is functional, cell-based. The conditions noted are these: dose 0.2-0.8 µM, time 3.0 day.
For data set [8], the system named is Mus musculus. As to the kind of experiment: Anti-obesity activity in high-fat and high-cholesterol diet induced C57BL/6J mouse assessed as reduction in serum glucose level at 20 mg/kg, ip measured after 3 weeks by GTT analysis. Type of data set: functional, organism-based.
Data set [9] has as its system Mus musculus. Description: Inhibition of lipid synthesis in high-fat and high-cholesterol diet induced C57BL/6J mouse assessed as downregulation of FASN protein expression at 20 mg/kg, ip administered for 6 weeks by Western blotting analysis. The class given is functional, organism-based.
In data set [10] the test system is Mus musculus. As to the kind of experiment: Anti-obesity activity in high-fat and high-cholesterol diet induced C57BL/6J mouse model assessed as reduction in body weight at 20 mg/kg, ip administered every day for 6 weeks and measured daily relative to control. Type of data set: functional. Set-up: scale not given: the % may be the effect or the level left.
Data set [11] relates to Mus musculus. Description: Anti-obesity activity in high-fat and high-cholesterol diet induced C57BL/6J mouse assessed as reduction in liver damage by measuring reduction in aspartate aminotransferase level in serum at 20 mg/kg, ip administered every day for 6 weeks. The class given is functional, organism-based.
Data set [12] can be described thus: Apparent oral clearance in Sprague-Dawley rat at 20 mg/kg, po administered for 24 hrs by LC-MS/MS analysis. The class given is ADME, organism-based. Conditions: in vivo.
Data set [13] concerns Mus musculus. As to the kind of experiment: Anti-obesity activity in high-fat and high-cholesterol diet induced C57BL/6J mouse assessed as attenuation of fibrosis in liver at 20 mg/kg, ip administered every day for 6 weeks by Sirius red staining based microscopic analysis. The class given is functional, organism-based.
For data set [14], the system named is 3T3-L1. As to the kind of experiment: Anti-adipogenic activity against mouse 3T3-L1 cells assessed as increase in Mcad mRNA expression at 0.2 to 0.8 uM incubated for 3 days by RT-PCR analysis. Type of data set: functional, cell-based. Conditions: dose 0.2-0.8 µM, time 3.0 day.
The subject of data set [15] is Mus musculus. Description: Inhibition of lipid synthesis in high-fat and high-cholesterol diet induced C57BL/6J mouse assessed as downregulation of FABP4 protein expression at 20 mg/kg, ip administered for 6 weeks by Western blotting analysis. Type of data set: functional, organism-based.
For data set [16], the system named is Mus musculus. Description: Anti-obesity activity in high-fat and high-cholesterol diet induced C57BL/6J mouse assessed as reduction in total cholesterol level at 20 mg/kg, ip administered every day for 6 weeks. The class given is functional, organism-based.

As usually defined, the Tmax is the time at which the peak concentration occurs. As a reminder, the EC50 is the concentration needed to bring the measured effect to its halfway point. What is called CL/F is the apparent clearance, not corrected for the fraction that reaches the circulation.

On to `CC(=O)c1c(-c2nccc(NCCN3CCCC3)n2)[nH]c2ccccc12`, for which the inhibition entry with Mus musculus [1], with Mus musculus [9] and in the data set on Mus musculus [15] was “Active” in each case. The Tmax in [2] was determined as 2.8 h. For the same compound, in the data set with 3T3-L1 [3], the EC50 turned out to be 106 nM. In data set [4], the Vz/F was found to be 24.4 L/kg. In addition, the outcome in the data set on 3T3-L1 [5], with Mus musculus [6], in the data set with 3T3-L1 [7], in the data set on Mus musculus [8], with Mus musculus [11] and in the data set on Mus musculus [13] was Active. Besides, the result with 3T3-L1 [14] and in the data set with Mus musculus [16] was Active. Besides, in the data set on Mus musculus [10], the Activity is listed as 17.4%. Further, the CL/F in [12] is 255 mL/min/kg.
